ChEMBL document CHEMBL4396937, “Synthesis of new triazole fused imidazo[2,1-b]thiazole hybrids with emphasis on Staphylococcus aureus virulence factors” (Bioorg Med Chem Lett, 2019)
Values after ≈ are worked out from the molar mass of the structure shown.

Assays:
Format in all cases: functional
Candida albicans [1] = test: Antifungal activity against Candida albicans MTCC 3017 assessed as reduction in fungal growth incubated for 24 hrs by agar well diffusion method; conditions: MTCC 3017, 24 h
Micrococcus luteus [2] = test: Antibacterial activity against Micrococcus luteus MTCC 2470 assessed as reduction in bacterial growth incubated for 24 hrs by agar well diffusion method; conditions: MTCC 2470, 24 h
Escherichia coli [3] = test: Bactericidal activity against Escherichia coli MTCC 739 assessed as reduction in bacterial survival incubated for 24 hrs followed by transfer of microbial suspension to agar plates and measured at 24 hrs post transfer by agar well diffusion method; conditions: MTCC 739, 24 h
Bacillus subtilis [4] = test: Bactericidal activity against Bacillus subtilis MTCC 121 assessed as reduction in bacterial survival incubated for 24 hrs followed by transfer of microbial suspension to agar plates and measured at 24 hrs post transfer by agar well diffusion method; conditions: MTCC 121, 24 h
Staphylococcus aureus [5] = test: Bactericidal activity against Staphylococcus aureus MLS-16 MTCC 2940 assessed as reduction in bacterial survival incubated for 24 hrs followed by transfer of microbial suspension to agar plates and measured at 24 hrs post transfer by agar well diffusion method; conditions: MLS-16 MTCC 2940, 24 h
Raoultella planticola [6] = test: Antibacterial activity against Klebsiella planticola MTCC 530 assessed as reduction in bacterial growth incubated for 24 hrs by agar well diffusion method; conditions: MTCC 530, 24 h
Pseudomonas aeruginosa [7] = test: Bactericidal activity against Pseudomonas aeruginosa MTCC 2453 assessed as reduction in bacterial survival incubated for 24 hrs followed by transfer of microbial suspension to agar plates and measured at 24 hrs post transfer by agar well diffusion method; conditions: MTCC 2453, 24 h
Raoultella planticola [8] = test: Bactericidal activity against Klebsiella planticola MTCC 530 assessed as reduction in bacterial survival incubated for 24 hrs followed by transfer of microbial suspension to agar plates and measured at 24 hrs post transfer by agar well diffusion method; conditions: MTCC 530, 24 h
Staphylococcus aureus [9] = test: Antibacterial activity against Staphylococcus aureus MLS-16 MTCC 2940 assessed as reduction in bacterial growth incubated for 24 hrs by agar well diffusion method; conditions: MLS-16 MTCC 2940, 24 h
Pseudomonas aeruginosa [10] = test: Antibacterial activity against Pseudomonas aeruginosa MTCC 2453 assessed as reduction in bacterial growth incubated for 24 hrs by agar well diffusion method; conditions: MTCC 2453, 24 h
Candida albicans [11] = test: Fungicidal activity against Candida albicans MTCC 3017 assessed as reduction in fungal survival incubated for 24 hrs followed by transfer of microbial suspension to agar plates and measured at 24 hrs post transfer by agar well diffusion method; conditions: MTCC 3017, 24 h
Escherichia coli [12] = test: Antibacterial activity against Escherichia coli MTCC 739 assessed as reduction in bacterial growth incubated for 24 hrs by agar well diffusion method; conditions: MTCC 739, 24 h
Bacillus subtilis [13] = test: Antibacterial activity against Bacillus subtilis MTCC 121 assessed as reduction in bacterial growth incubated for 24 hrs by agar well diffusion method; conditions: MTCC 121, 24 h
Staphylococcus aureus [14] = test: Bactericidal activity against Staphylococcus aureus MTCC 96 assessed as reduction in bacterial survival incubated for 24 hrs followed by transfer of microbial suspension to agar plates and measured at 24 hrs post transfer by agar well diffusion method; conditions: MTCC 96, 24 h
Micrococcus luteus [15] = test: Bactericidal activity against Micrococcus luteus MTCC 2470 assessed as reduction in bacterial survival incubated for 24 hrs followed by transfer of microbial suspension to agar plates and measured at 24 hrs post transfer by agar well diffusion method; conditions: MTCC 2470, 24 h
Staphylococcus aureus [16] = test: Antibacterial activity against Staphylococcus aureus MTCC 96 assessed as reduction in bacterial growth incubated for 24 hrs by agar well diffusion method; conditions: MTCC 96, 24 h

Which results are given for `COc1ccc(-c2nc3sccn3c2C(=O)c2cn(-c3ccc(Cl)cc3)nn2)cc1`?
MIC (Candida albicans [1]): 15.6 µg/mL (≈ 35.8 µM); MIC (Micrococcus luteus [2]): 3.9 µg/mL (≈ 8.95 µM); MBC (Escherichia coli [3]): > 125 µg/mL; MBC (Bacillus subtilis [4]): 7.8 µg/mL (≈ 17.9 µM); MBC (Staphylococcus aureus [5]): 15.6 µg/mL (≈ 35.8 µM); MIC (Raoultella planticola [6]): > 125 µg/mL; MBC (Pseudomonas aeruginosa [7]): > 125 µg/mL; MBC (Raoultella planticola [8]): > 125 µg/mL; MIC (Staphylococcus aureus [9]): 7.8 µg/mL (≈ 17.9 µM); MIC (Pseudomonas aeruginosa [10]): > 125 µg/mL; MFC (Candida albicans [11]): 31.2 µg/mL (≈ 71.6 µM); MIC (Escherichia coli [12]): > 125 µg/mL; MIC (Bacillus subtilis [13]): 3.9 µg/mL (≈ 8.95 µM); MBC (Staphylococcus aureus [14]): 7.8 µg/mL (≈ 17.9 µM); MBC (Micrococcus luteus [15]): 7.8 µg/mL (≈ 17.9 µM); MIC (Staphylococcus aureus [16]): 3.9 µg/mL (≈ 8.95 µM)

How did the MIC (Candida albicans [1]) turn out when `COc1ccc(-c2nc3sccn3c2C(=O)c2cn(-c3ccc(F)cc3Br)nn2)cc1` was run?
Its MIC is 7.8 µg/mL (≈ 15.7 µM).

What about the MIC (Micrococcus luteus [2]) of the same compound?
The MIC was 3.9 µg/mL (≈ 7.83 µM).

And the MBC (Escherichia coli [3])?
The MBC was > 125 µg/mL.

What about the MBC (Bacillus subtilis [4]) of the same compound?
The MBC was 15.6 µg/mL (≈ 31.3 µM).

What about the MBC (Staphylococcus aureus [5]) of the same compound?
The MBC was 15.6 µg/mL (≈ 31.3 µM).

What about the MIC (Raoultella planticola [6]) of the same compound?
Its MIC is 15.6 µg/mL (≈ 31.3 µM).

What about the MBC (Pseudomonas aeruginosa [7]) of the same compound?
The MBC was > 125 µg/mL.

And the MBC (Raoultella planticola [8])?
Its MBC is 15.6 µg/mL (≈ 31.3 µM).

What about the MIC (Staphylococcus aureus [9]) of the same compound?
Its MIC is 7.8 µg/mL (≈ 15.7 µM).

What about the MIC (Pseudomonas aeruginosa [10]) of the same compound?
The MIC was > 125 µg/mL.

And the MFC (Candida albicans [11])?
The MFC was 15.6 µg/mL (≈ 31.3 µM).

What about the MIC (Escherichia coli [12]) of the same compound?
The MIC was > 125 µg/mL.

What about the MIC (Bacillus subtilis [13]) of the same compound?
The MIC was 7.8 µg/mL (≈ 15.7 µM).

And the MBC (Staphylococcus aureus [14])?
The MBC was 7.8 µg/mL (≈ 15.7 µM).

And the MBC (Micrococcus luteus [15])?
Its MBC is 7.8 µg/mL (≈ 15.7 µM).

What about the MIC (Staphylococcus aureus [16]) of the same compound?
Its MIC is 3.9 µg/mL (≈ 7.83 µM).

`COc1ccc(-c2nc3sccn3c2C(=O)c2cn(-c3ccc(Br)cc3)nn2)cc1` was tested. Which MIC (Candida albicans [1]) did it give?
The MIC was 7.8 µg/mL (≈ 16.2 µM).

And the MIC (Micrococcus luteus [2])?
Its MIC is 7.8 µg/mL (≈ 16.2 µM).

And the MBC (Escherichia coli [3])?
Its MBC is > 125 µg/mL.

What about the MBC (Bacillus subtilis [4]) of the same compound?
Its MBC is 15.6 µg/mL (≈ 32.5 µM).

And the MBC (Staphylococcus aureus [5])?
Its MBC is 15.6 µg/mL (≈ 32.5 µM).

What about the MIC (Raoultella planticola [6]) of the same compound?
Its MIC is 15.6 µg/mL (≈ 32.5 µM).

And the MBC (Pseudomonas aeruginosa [7])?
Its MBC is > 125 µg/mL.

And the MBC (Raoultella planticola [8])?
The MBC was 31.2 µg/mL (≈ 65 µM).

And the MIC (Staphylococcus aureus [9])?
Its MIC is 7.8 µg/mL (≈ 16.2 µM).

And the MIC (Pseudomonas aeruginosa [10])?
The MIC was > 125 µg/mL.

And the MFC (Candida albicans [11])?
The MFC was 15.6 µg/mL (≈ 32.5 µM).

What about the MIC (Escherichia coli [12]) of the same compound?
Its MIC is > 125 µg/mL.

What about the MIC (Bacillus subtilis [13]) of the same compound?
The MIC was 7.8 µg/mL (≈ 16.2 µM).

What about the MBC (Staphylococcus aureus [14]) of the same compound?
The MBC was 7.8 µg/mL (≈ 16.2 µM).

What about the MBC (Micrococcus luteus [15]) of the same compound?
Its MBC is 15.6 µg/mL (≈ 32.5 µM).

And the MIC (Staphylococcus aureus [16])?
Its MIC is 3.9 µg/mL (≈ 8.12 µM).

With `COc1ccc(-c2nc3sccn3c2C(=O)c2cn(-c3cc(OC)c(OC)c(OC)c3)nn2)cc1` as the compound, how does the MIC (Candida albicans [1]) read?
The MIC was 7.8 µg/mL (≈ 15.9 µM).

What about the MIC (Micrococcus luteus [2]) of the same compound?
The MIC was 15.6 µg/mL (≈ 31.7 µM).

And the MBC (Escherichia coli [3])?
The MBC was > 125 µg/mL.

What about the MBC (Bacillus subtilis [4]) of the same compound?
The MBC was 31.2 µg/mL (≈ 63.5 µM).

What about the MBC (Staphylococcus aureus [5]) of the same compound?
The MBC was 15.6 µg/mL (≈ 31.7 µM).

What about the MIC (Raoultella planticola [6]) of the same compound?
The MIC was > 125 µg/mL.

What about the MBC (Pseudomonas aeruginosa [7]) of the same compound?
Its MBC is > 125 µg/mL.

What about the MBC (Raoultella planticola [8]) of the same compound?
The MBC was > 125 µg/mL.

And the MIC (Staphylococcus aureus [9])?
The MIC was 7.8 µg/mL (≈ 15.9 µM).

And the MIC (Pseudomonas aeruginosa [10])?
Its MIC is > 125 µg/mL.

What about the MFC (Candida albicans [11]) of the same compound?
The MFC was 15.6 µg/mL (≈ 31.7 µM).

What about the MIC (Escherichia coli [12]) of the same compound?
Its MIC is > 125 µg/mL.

What about the MIC (Bacillus subtilis [13]) of the same compound?
Its MIC is 15.6 µg/mL (≈ 31.7 µM).

What about the MBC (Staphylococcus aureus [14]) of the same compound?
The MBC was 31.2 µg/mL (≈ 63.5 µM).

What about the MBC (Micrococcus luteus [15]) of the same compound?
The MBC was 31.2 µg/mL (≈ 63.5 µM).

What about the MIC (Staphylococcus aureus [16]) of the same compound?
Its MIC is 15.6 µg/mL (≈ 31.7 µM).
